According to PubChem BioAssay (NCI):
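Assay format: 96-well plates, 48-hour exposure. The concentration for full growth arrest is given as TGI.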

Assays:
Experiment in all cases: inhibition of tumour cell growth, NCI panel, 48 h
[1] = test system: A498 renal
[2] = test system: A549 NSCLC
[3] = test system: ACHN renal
[4] = test system: BT-549 breast
[5] = test system: CAKI-1 renal
[6] = test system: CCRF-CEM leukemia
[7] = test system: COLO 205 colon
[8] = test system: DU-145 prostate
[9] = test system: EKVX NSCLC
[10] = test system: HCC-2998 colon
[11] = test system: HCT-116 colon
[12] = test system: HCT-15 colon
[13] = test system: HL-60(TB) leukemia
[14] = test system: HOP-62 NSCLC
[15] = test system: HOP-92 NSCLC
[16] = test system: HS 578T breast
[17] = test system: HT29 colon
[18] = test system: IGROV1 ovarian
[19] = test system: K-562 leukemia
[20] = test system: KM12 colon
[21] = test system: LOX IMVI melanoma
[22] = test system: M14 melanoma
[23] = test system: MALME-3M melanoma
[24] = test system: MCF7 breast
[25] = test system: MDA-MB-231 breast
[26] = test system: MDA-MB-435
[27] = test system: MDA-N
[28] = test system: MOLT-4 leukemia
[29] = test system: NCI-H226 lung
[30] = test system: NCI-H23 lung
[31] = test system: NCI-H460 lung
[32] = test system: NCI-H522 lung
[33] = test system: NCI/ADR-RES ovarian
[34] = test system: OVCAR-3 ovarian
[35] = test system: OVCAR-4 ovarian
[36] = test system: OVCAR-5 ovarian
[37] = test system: OVCAR-8 ovarian
[38] = test system: PC-3 prostate
[39] = test system: RPMI-8226 leukemia
[40] = test system: SF-268 CNS
[41] = test system: SF-295 CNS
[42] = test system: SF-539 CNS
[43] = test system: SK-MEL-2 melanoma
[44] = test system: SK-MEL-28 melanoma
[45] = test system: SK-MEL-5 melanoma
[46] = test system: SK-OV-3 ovarian
[47] = test system: SN12C renal
[48] = test system: SNB-19 CNS
[49] = test system: SR leukemia
[50] = test system: SW-620 colon
[51] = test system: T-47D breast
[52] = test system: TK-10 renal
[53] = test system: U251 CNS
[54] = test system: UACC-257 melanoma
[55] = test system: UACC-62 melanoma
[56] = test system: UO-31 renal

`COC(=O)CCc1ccc2c(c1)[C@H](C(=O)OC)[C@@H](c1ccc(O)cc1)O2` was tested, and the TGI [1] was > 100 µM, the TGI [2] was > 100 µM and the TGI [3] was > 100 µM. For the same compound, the TGI [4] was > 100 µM, the TGI [5] was > 100 µM and the TGI [6] was > 100 µM. The TGI [7] was > 100 µM, the TGI [8] was > 100 µM and the TGI [9] was > 100 µM. The TGI [10] was > 100 µM, the TGI [11] was 47.1 µM and the TGI [12] was > 100 µM. For the same compound, the TGI [13] was > 100 µM, the TGI [14] was > 100 µM and the TGI [15] was > 100 µM. The TGI [16] was > 100 µM, the TGI [17] was > 100 µM and the TGI [18] was > 100 µM. The TGI [19] was > 100 µM, the TGI [20] was > 100 µM and the TGI [21] was > 100 µM. The TGI [22] was > 100 µM, the TGI [23] was > 100 µM and the TGI [24] was > 100 µM. The TGI [25] was > 100 µM, the TGI [26] was > 100 µM and the TGI [27] was > 100 µM. For the same compound, the TGI [28] was > 100 µM, the TGI [29] was 67.1 µM and the TGI [30] was > 100 µM. The TGI [31] was > 100 µM, the TGI [32] was > 100 µM and the TGI [33] was > 100 µM. The TGI [34] was > 100 µM, the TGI [35] was > 100 µM and the TGI [36] was > 100 µM. The TGI [37] was > 100 µM, the TGI [38] was > 100 µM and the TGI [39] was > 100 µM. The TGI [40] was > 100 µM, the TGI [41] was > 100 µM and the TGI [42] was 65.9 µM. For the same compound, the TGI [43] was > 100 µM, the TGI [44] was > 100 µM and the TGI [45] was > 100 µM. For the same compound, the TGI [46] was > 100 µM, the TGI [47] was > 100 µM and the TGI [48] was > 100 µM. For the same compound, the TGI [49] was > 100 µM, the TGI [50] was > 100 µM and the TGI [51] was > 100 µM. The TGI [52] was > 100 µM, the TGI [53] was > 100 µM and the TGI [54] was > 100 µM. The TGI [55] was > 100 µM and the TGI [56] was > 100 µM.
